Measurements taken from ChEMBL document CHEMBL1141655, “Structure-activity relationships of Bak derived peptides: affinity and specificity modulations by amino acid replacement” (Eur J Med Chem, 2008).
Non-standard residues stand in square brackets, D forms with d. Residues, ends and D or L forms follow the SMILES beside them. Phe(4-Cl) = N[C@@H](Cc1ccc(Cl)cc1)C(=O)O; 2Nal = N[C@@H](Cc1ccc2ccccc2c1)C(=O)O

biological target: Bcl-2-like protein 1 (Homo sapiens, UniProt Q07817); experiment: Binding affinity to recombinant Bcl-XL expressed in Escherichia coli BL21 by fluorescence polarization assay
Sequence (Q07817 whole entry): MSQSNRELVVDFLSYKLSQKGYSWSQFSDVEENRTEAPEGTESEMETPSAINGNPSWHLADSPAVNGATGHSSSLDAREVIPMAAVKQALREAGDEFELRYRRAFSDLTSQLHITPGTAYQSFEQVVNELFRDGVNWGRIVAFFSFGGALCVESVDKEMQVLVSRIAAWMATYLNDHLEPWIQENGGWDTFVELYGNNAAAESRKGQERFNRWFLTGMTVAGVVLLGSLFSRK

EC50 [nM] | Compound
> 10000 | CC[C@H](C)[C@H](NC(=O)[C@H](C)NC(=O)[C@H](CC(C)C)NC(=O)[C@H](CCC(N)=O)NC(=O)[C@H](CCCNC(=N)N)NC(=O)CNC(=O)[C@@H](NC(=O)[C@H](CCC(N)=O)NC(=O)CN)C(C)C)C(=O)N[C@H](C(=O)NCC(=O)N[C@@H](CC(=O)O)C(=O)N[C@@H](CC(=O)O)C(=O)N[C@@H](CCC(=O)O)C(=O)N[C@@H](CC(N)=O)C(=O)N[C@@H](CCCNC(=N)N)C(=O)O)[C@@H](C)CC
5120 | CC[C@H](C)[C@H](NC(=O)[C@H](C)NC(=O)[C@H](CC(C)C)NC(=O)[C@H](CCC(N)=O)NC(=O)[C@H](CCCNC(=N)N)NC(=O)CNC(=O)[C@@H](NC(=O)[C@H](CCC(N)=O)NC(=O)CN)C(C)C)C(=O)N[C@H](C(=O)NCC(=O)N[C@@H](CC(=O)O)C(=O)N[C@@H](CC(=O)O)C(=O)N[C@@H](Cc1cnc[nH]1)C(=O)N[C@@H](CC(N)=O)C(=O)N[C@@H](CCCNC(=N)N)C(=O)O)[C@@H](C)CC
15000 | CC[C@H](C)[C@H](NC(=O)[C@H](C)NC(=O)[C@H](CC(C)C)NC(=O)[C@H](CCC(N)=O)NC(=O)[C@H](CCCNC(=N)N)NC(=O)CNC(=O)[C@H](C)NC(=O)[C@H](CCC(N)=O)NC(=O)CN)C(=O)N[C@H](C(=O)NCC(=O)N[C@@H](CC(=O)O)C(=O)N[C@@H](CC(=O)O)C(=O)N[C@H](C(=O)N[C@@H](CC(N)=O)C(=O)N[C@@H](CCCNC(=N)N)C(=O)O)[C@@H](C)CC)[C@@H](C)CC
1470 | CC[C@H](C)[C@H](NC(=O)[C@H](C)NC(=O)[C@H](CC(C)C)NC(=O)[C@H](CCC(N)=O)NC(=O)[C@H](CCCNC(=N)N)NC(=O)CNC(=O)[C@@H](NC(=O)[C@H](CCC(N)=O)NC(=O)CN)C(C)C)C(=O)N[C@@H](Cc1ccc([N+](=O)[O-])cc1)C(=O)NCC(=O)N[C@@H](CC(=O)O)C(=O)N[C@@H](CC(=O)O)C(=O)N[C@H](C(=O)N[C@@H](CC(N)=O)C(=O)N[C@@H](CCCNC(=N)N)C(=O)O)[C@@H](C)CC
17000 | CC[C@H](C)[C@H](NC(=O)[C@H](C)NC(=O)[C@H](CC(C)C)NC(=O)[C@H](CCC(N)=O)NC(=O)[C@H](CCCNC(=N)N)NC(=O)CNC(=O)[C@@H](NC(=O)[C@H](CCC(N)=O)NC(=O)CN)C(C)C)C(=O)N[C@@H](C)C(=O)NCC(=O)N[C@@H](CC(=O)O)C(=O)N[C@@H](CC(=O)O)C(=O)N[C@H](C(=O)N[C@@H](CC(N)=O)C(=O)N[C@@H](CCCNC(=N)N)C(=O)O)[C@@H](C)CC
56 | CC[C@H](C)[C@H](NC(=O)[C@H](C)NC(=O)[C@H](CC(C)C)NC(=O)[C@H](CCC(N)=O)NC(=O)[C@H](CCCNC(=N)N)NC(=O)CNC(=O)[C@@H](NC(=O)[C@H](CCC(N)=O)NC(=O)CN)C(C)C)C(=O)N[C@H](C(=O)NCC(=O)N[C@@H](CC(=O)O)C(=O)N[C@@H](CC(=O)O)C(=O)N[C@@H](Cc1cccc(Cl)c1)C(=O)N[C@@H](CC(N)=O)C(=O)N[C@@H](CCCNC(=N)N)C(=O)O)[C@@H](C)CC
58 | CC[C@H](C)[C@H](NC(=O)[C@H](C)NC(=O)[C@H](CC(C)C)NC(=O)[C@H](CCC(N)=O)NC(=O)[C@H](CCCNC(=N)N)NC(=O)CNC(=O)[C@@H](NC(=O)[C@H](CCC(N)=O)NC(=O)CN)C(C)C)C(=O)N[C@H](C(=O)NCC(=O)N[C@@H](CC(=O)O)C(=O)N[C@@H](CC(=O)O)C(=O)N[C@@H](CC1CCCCC1)C(=O)N[C@@H](CC(N)=O)C(=O)N[C@@H](CCCNC(=N)N)C(=O)O)[C@@H](C)CC

Further lines, the molecule ahead of its results:

Compound | EC50 [nM]
CC[C@H](C)[C@H](NC(=O)[C@H](C)NC(=O)[C@H](CC(C)C)NC(=O)[C@H](CCC(N)=O)NC(=O)[C@H](CCCN=C(N)N)NC(=O)CNC(=O)[C@@H](NC(=O)[C@H](CCC(N)=O)NC(=O)CN)C(C)C)C(=O)N[C@@H](Cc1ccc2ccccc2c1)C(=O)NCC(=O)N[C@@H](CC(=O)O)C(=O)N[C@@H](CC(=O)O)C(=O)N[C@H](C(=O)N[C@@H](CC(N)=O)C(=O)N[C@@H](CCCN=C(N)N)C(=O)O)[C@@H](C)CC | 1300
CC[C@H](C)[C@H](NC(=O)[C@H](C)NC(=O)[C@H](Cc1cccc(Cl)c1)NC(=O)[C@H](CCC(N)=O)NC(=O)[C@H](CCCN=C(N)N)NC(=O)CNC(=O)[C@@H](NC(=O)[C@H](CCC(N)=O)NC(=O)CN)C(C)C)C(=O)N[C@H](C(=O)NCC(=O)N[C@@H](CC(=O)O)C(=O)N[C@@H](CC(=O)O)C(=O)N[C@H](C(=O)N[C@@H](CC(N)=O)C(=O)N[C@@H](CCCN=C(N)N)C(=O)O)[C@@H](C)CC)[C@@H](C)CC | 359
CC[C@H](C)[C@H](NC(=O)[C@H](C)NC(=O)[C@H](CC(C)C)NC(=O)[C@H](CCC(N)=O)NC(=O)[C@H](CCCN=C(N)N)NC(=O)CNC(=O)[C@@H](NC(=O)[C@H](CCC(N)=O)NC(=O)CN)C(C)C)C(=O)N[C@@H](Cc1cccc(Cl)c1)C(=O)NCC(=O)N[C@@H](CC(=O)O)C(=O)N[C@@H](CC(=O)O)C(=O)N[C@H](C(=O)N[C@@H](CC(N)=O)C(=O)N[C@@H](CCCN=C(N)N)C(=O)O)[C@@H](C)CC | 200
CC[C@H](C)[C@H](NC(=O)[C@H](CC(=O)O)NC(=O)[C@H](CC(=O)O)NC(=O)CNC(=O)[C@H](Cc1ccc(O)cc1)N(C)C(=O)[C@@H](NC(=O)[C@H](C)NC(=O)[C@H](CC(C)C)NC(=O)[C@H](CCC(N)=O)NC(=O)[C@H](CCCNC(=N)N)NC(=O)CNC(=O)[C@@H](NC(=O)[C@H](CCC(N)=O)NC(=O)CN)C(C)C)[C@@H](C)CC)C(=O)N[C@@H](CC(N)=O)C(=O)N[C@@H](CCCNC(=N)N)C(=O)O | 3620
CC[C@H](C)[C@H](NC(=O)[C@H](C)NC(=O)[C@H](Cc1ccc2ccccc2c1)NC(=O)[C@H](CCC(N)=O)NC(=O)[C@H](CCCNC(=N)N)NC(=O)CNC(=O)[C@@H](NC(=O)[C@H](CCC(N)=O)NC(=O)CN)C(C)C)C(=O)N[C@H](C(=O)NCC(=O)N[C@@H](CC(=O)O)C(=O)N[C@@H](CC(=O)O)C(=O)N[C@@H](Cc1ccccc1)C(=O)N[C@@H](CC(N)=O)C(=O)N[C@@H](CCCNC(=N)N)C(=O)O)[C@@H](C)CC (H-GQVGRQ[2Nal]AIIGDDFNR-OH) | 54
CC[C@H](C)[C@H](NC(=O)[C@H](C)NC(=O)[C@H](CCc1ccccc1)NC(=O)[C@H](CCC(N)=O)NC(=O)[C@H](CCCNC(=N)N)NC(=O)CNC(=O)[C@@H](NC(=O)[C@H](CCC(N)=O)NC(=O)CN)C(C)C)C(=O)N[C@H](C(=O)NCC(=O)N[C@@H](CC(=O)O)C(=O)N[C@@H](CC(=O)O)C(=O)N[C@H](C(=O)N[C@@H](CC(N)=O)C(=O)N[C@@H](CCCNC(=N)N)C(=O)O)[C@@H](C)CC)[C@@H](C)CC | 225
CC[C@H](C)[C@H](NC(=O)[C@H](C)NC(=O)[C@H](CC(C)C)NC(=O)[C@H](CCC(N)=O)NC(=O)[C@H](CCCN=C(N)N)NC(=O)CNC(=O)[C@@H](NC(=O)[C@H](CCC(N)=O)NC(=O)CN)C(C)C)C(=O)N[C@H](C(=O)NCC(=O)N[C@@H](CC(=O)O)C(=O)N[C@@H](CC(=O)O)C(=O)N[C@@H](C)C(=O)N[C@@H](CC(N)=O)C(=O)N[C@@H](CCCN=C(N)N)C(=O)O)[C@@H](C)CC | 93000
CCCC[C@H](NC(=O)[C@H](CC(=O)O)NC(=O)[C@H](CC(=O)O)NC(=O)CNC(=O)[C@@H](NC(=O)[C@@H](NC(=O)[C@H](C)NC(=O)[C@H](CC(C)C)NC(=O)[C@H](CCC(N)=O)NC(=O)[C@H](CCCN=C(N)N)NC(=O)CNC(=O)[C@@H](NC(=O)[C@H](CCC(N)=O)NC(=O)CN)C(C)C)[C@@H](C)CC)[C@@H](C)CC)C(=O)N[C@@H](CC(N)=O)C(=O)N[C@@H](CCCN=C(N)N)C(=O)O | 118
CC[C@H](C)[C@H](NC(=O)[C@H](C)NC(=O)[C@H](CC(C)C)NC(=O)[C@H](CCC(N)=O)NC(=O)[C@H](CCCN=C(N)N)NC(=O)CNC(=O)[C@@H](NC(=O)[C@H](CCC(N)=O)NC(=O)CN)C(C)C)C(=O)N[C@H](C(=O)NCC(=O)N[C@@H](CC(=O)O)C(=O)N[C@@H](CC(=O)O)C(=O)N[C@@H](Cc1ccc(O)cc1)C(=O)N[C@@H](CC(N)=O)C(=O)N[C@@H](CCCN=C(N)N)C(=O)O)[C@@H](C)CC | 159
CC[C@H](C)[C@H](NC(=O)[C@H](C)NC(=O)[C@H](CC(C)C)NC(=O)[C@H](CCC(N)=O)NC(=O)[C@H](CCCN=C(N)N)NC(=O)CNC(=O)[C@@H](NC(=O)[C@H](CCC(N)=O)NC(=O)CN)C(C)C)C(=O)N[C@H](C(=O)NCC(=O)N[C@@H](CC(=O)O)C(=O)N[C@@H](CC(=O)O)C(=O)N[C@@H](Cc1ccccc1)C(=O)N[C@@H](CC(N)=O)C(=O)N[C@@H](CCCN=C(N)N)C(=O)O)[C@@H](C)CC | 54
CC[C@H](C)[C@H](NC(=O)[C@H](C)NC(=O)[C@H](C)NC(=O)[C@H](CCC(N)=O)NC(=O)[C@H](CCCN=C(N)N)NC(=O)CNC(=O)[C@@H](NC(=O)[C@H](CCC(N)=O)NC(=O)CN)C(C)C)C(=O)N[C@H](C(=O)NCC(=O)N[C@@H](CC(=O)O)C(=O)N[C@@H](CC(=O)O)C(=O)N[C@H](C(=O)N[C@@H](CC(N)=O)C(=O)N[C@@H](CCCN=C(N)N)C(=O)O)[C@@H](C)CC)[C@@H](C)CC | 270000
CC[C@H](C)[C@H](NC(=O)[C@H](C)NC(=O)[C@H](Cc1ccc2ccccc2c1)NC(=O)[C@H](CCC(N)=O)NC(=O)[C@H](CCCNC(=N)N)NC(=O)CNC(=O)[C@@H](NC(=O)[C@H](CCC(N)=O)NC(=O)CN)C(C)C)C(=O)N[C@H](C(=O)NCC(=O)N[C@@H](CC(=O)O)C(=O)N[C@@H](CC(=O)O)C(=O)N[C@@H](Cc1ccc(Cl)cc1)C(=O)N[C@@H](CC(N)=O)C(=O)N[C@@H](CCCNC(=N)N)C(=O)O)[C@@H](C)CC (H-GQVGRQ[2Nal]AIIGDD[Phe(4-Cl)]NR-OH) | 53
CCCC[C@H](NC(=O)[C@@H](NC(=O)[C@H](C)NC(=O)[C@H](CC(C)C)NC(=O)[C@H](CCC(N)=O)NC(=O)[C@H](CCCN=C(N)N)NC(=O)CNC(=O)[C@@H](NC(=O)[C@H](CCC(N)=O)NC(=O)CN)C(C)C)[C@@H](C)CC)C(=O)NCC(=O)N[C@@H](CC(=O)O)C(=O)N[C@@H](CC(=O)O)C(=O)N[C@H](C(=O)N[C@@H](CC(N)=O)C(=O)N[C@@H](CCCN=C(N)N)C(=O)O)[C@@H](C)CC | 655
CC[C@H](C)[C@H](NC(=O)[C@H](C)NC(=O)[C@H](CC(C)C)NC(=O)[C@H](CCC(N)=O)NC(=O)[C@H](CCCN=C(N)N)NC(=O)CNC(=O)[C@@H](NC(=O)[C@H](CCC(N)=O)NC(=O)CN)C(C)C)C(=O)N[C@H](C(=O)NCC(=O)N[C@@H](CC(=O)O)C(=O)N[C@@H](CC(=O)O)C(=O)N[C@@H](Cc1cccc2ccccc12)C(=O)N[C@@H](CC(N)=O)C(=O)N[C@@H](CCCN=C(N)N)C(=O)O)[C@@H](C)CC | 77
